Test results taken from patent US9765101B2, “Organo-arsenoxide compounds and use thereof” (NewSouth Innovations Pty Limited, priority 2006, dated 2017).

How the values were obtained:
Format in all cases: cell-based, bovine
BAE cells [1] = experiment: BAE cell proliferation assay (MTT, 72 h)
Procedure: BAE cells were from Cell Applications, San Diego, Calif. and BxPC-3, HT1080, LLC, PANC-1, MCF-7, HCT116 and K562 cells were from ATCC, Bethesda, Md. NB4 and MDCK2 cells were from Shane Supple (Kanematsu Laboratories, Royal Prince Alfred Hospital, Sydney, Australia) and P. Borst (The Netherlands Cancer Institute, Amsterdam, The Netherlands). BAE, HT1080, Panc-1, MCF-7, HCT116, MDCK2 and LLC cells were cultured in DMEM. NB4, K562 and BxPC-3 cells were cultured in RPMI medium. The cells were supplemented with 10% foetal calf serum (FBS), 2 mM L-glutamine, and 1 U·mL-1 penicillin/streptomycin. Cell culture plasticware was from Techno Plastic Products (Trasadingen, Switzerland). All other cell culture reagents were from Gibco (Gaithersburg, Md.).
Adherent cells were allowed to adhere overnight.

BAE cells [2] = experiment: BAE cell proliferation assay, 24, 48 or 72 h (Example 2)
Procedure: Bovine aortic endothelial (BAE) cells were from Cell Application (San Diego, Calif.). BAE cells were cultured in DMEM supplemented with 10% fetal calf serum, 2 mM L-glutamine, and 5 units per mL penicillin and streptomycin (Gibco, Gaithersburg, Md.). Cells were cultured at 37° C. in a 5% CO2, 95% air atmosphere. BAE cells were seeded in 96-well plates (5,000 cells per well) in 0.2 ml of culture medium. After 24 h of growth, the medium was replaced with fresh culture medium supplemented with GSAO, CAO or 4H10 and cells were cultured for an additional 24, 48 or 72 h. Viable attached cells were determined using the tetrazolium salt MTT (Sigma, St. Louis, Mo.) according to the manufacturer's protocol. Results were expressed as percentage of untreated controls.

[3] = biological target: T1, multidrug resistance associated protein 1 (MRP-1) (Bos taurus, UniProt Q8HXQ5); experiment: Accumulation in BAE cells with MRP-1 inhibitor 4H10
T1 construct: host or cells: BAE (bovine aortic endothelial) cells
Procedure: FIG. 16. […] A. CAO accumulates in cells at a much faster rate than GSAO. BAE cells were incubated with 50 μM GSAO or CAO for 4 h. Cellular arsenic levels were determined by ICPMS. The rates of accumulation are GSAO and CAO are 0.03 and 0.20 nmol As atoms per 10^6 cells, respectively. Data points are the mean±SD of three determinations. The results are representative of two experiments. […] BAE cells pretreated for 30 min with 10 μM of the MRP-1 inhibitor 4H10 were incubated with 50 μM GSAO or CAO for 2 h. Cellular arsenic levels were determined by ICPMS. Data points are the mean±SD of three determinations. The results are representative of two experiments. C. GSAO and CAO IC50 values for proliferation arrest of endothelial cells. BAE cells were incubated with 0.8-100 μM GSAO or CAO for 24, 48 or 72 h. Cell viability was determined using MTT. Results are expressed as percentage of control. Values are mean±SD of triplicate determinations. Results are representative of three experiments.
Depending on the type of experiments, 1.6×10^6 or 7.5×10^5 BAE cells were seeded in petri dishes or 6-well-plates, respectively, and allowed to attach overnight. The medium was replaced and the cells were incubated for 30 min in the absence or presence of acivicin or 4H10. The cells were then incubated with 50 or 100 μM GSAO or CAO for 30 mM for 4 h. […]

BAE cells [4] = experiment: Accumulation of GSAO and CAO in BAE cells (ICPMS)
Procedure: Depending on the type of experiments, 1.6×10^6 or 7.5×10^5 BAE cells were seeded in petri dishes or 6-well-plates, respectively, and allowed to attach overnight. The medium was replaced and the cells were incubated for 30 min in the absence or presence of acivicin or 4H10. The cells were then incubated with 50 or 100 μM GSAO or CAO […] for 4 h. Cells were then washed twice with ice-cold PBS and lysed with 1 ml of 70% w/w nitric acid.

T1 sequence (Q8HXQ5 whole entry): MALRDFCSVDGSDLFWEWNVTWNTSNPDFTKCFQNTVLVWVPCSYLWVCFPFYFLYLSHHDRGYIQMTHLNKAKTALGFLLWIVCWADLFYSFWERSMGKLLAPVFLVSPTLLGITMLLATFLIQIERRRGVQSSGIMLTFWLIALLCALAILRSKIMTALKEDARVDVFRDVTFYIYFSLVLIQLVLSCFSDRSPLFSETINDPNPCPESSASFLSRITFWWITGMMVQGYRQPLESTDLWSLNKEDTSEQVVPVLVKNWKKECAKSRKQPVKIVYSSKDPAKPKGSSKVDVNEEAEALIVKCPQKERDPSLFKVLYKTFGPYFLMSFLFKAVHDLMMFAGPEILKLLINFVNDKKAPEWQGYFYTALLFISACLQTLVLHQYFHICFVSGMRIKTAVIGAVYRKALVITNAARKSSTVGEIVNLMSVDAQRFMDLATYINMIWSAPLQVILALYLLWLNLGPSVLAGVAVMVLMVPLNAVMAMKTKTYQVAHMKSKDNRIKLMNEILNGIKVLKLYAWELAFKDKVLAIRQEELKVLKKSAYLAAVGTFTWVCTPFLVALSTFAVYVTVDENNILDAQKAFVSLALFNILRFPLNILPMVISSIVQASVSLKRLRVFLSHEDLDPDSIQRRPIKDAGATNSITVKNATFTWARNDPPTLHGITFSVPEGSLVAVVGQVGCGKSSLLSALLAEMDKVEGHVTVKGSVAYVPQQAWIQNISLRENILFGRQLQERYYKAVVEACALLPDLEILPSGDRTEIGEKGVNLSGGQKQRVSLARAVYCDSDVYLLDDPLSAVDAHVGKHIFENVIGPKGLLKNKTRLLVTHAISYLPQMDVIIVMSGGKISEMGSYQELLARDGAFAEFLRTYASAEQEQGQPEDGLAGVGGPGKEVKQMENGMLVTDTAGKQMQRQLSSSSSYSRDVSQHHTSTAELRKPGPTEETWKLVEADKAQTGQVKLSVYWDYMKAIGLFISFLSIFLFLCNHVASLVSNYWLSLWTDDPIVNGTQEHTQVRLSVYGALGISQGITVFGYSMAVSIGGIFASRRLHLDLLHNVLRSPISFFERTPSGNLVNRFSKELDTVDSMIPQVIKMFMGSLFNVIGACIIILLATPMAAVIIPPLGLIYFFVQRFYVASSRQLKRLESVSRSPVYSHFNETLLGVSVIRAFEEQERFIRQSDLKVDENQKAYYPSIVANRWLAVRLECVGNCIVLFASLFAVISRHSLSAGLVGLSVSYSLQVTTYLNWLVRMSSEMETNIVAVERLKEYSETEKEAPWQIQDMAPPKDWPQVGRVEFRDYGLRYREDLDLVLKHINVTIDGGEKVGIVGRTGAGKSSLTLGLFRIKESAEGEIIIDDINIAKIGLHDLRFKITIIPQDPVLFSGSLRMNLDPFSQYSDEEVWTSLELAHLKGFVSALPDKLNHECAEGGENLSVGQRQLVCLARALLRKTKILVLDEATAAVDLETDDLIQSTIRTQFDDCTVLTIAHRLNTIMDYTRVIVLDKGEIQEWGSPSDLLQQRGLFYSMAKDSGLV

Row | Structure (SMILES) | effect on proliferation of BAE cells (BAE cells [1]) | anti-proliferative activity compared to GSAO (BAE cells [2]) | export by multidrug resistance associated protein 1 [3] | increase of cellular accumulation when MRP-1 was inhibited ([3]; 10 μM 4H10 30 min, then 50 μM compound 2 h) | rate of accumulation in endothelial cells, fold faster than GSAO (BAE cells [4]) | rate of accumulation (BAE cells [4]; 50 μM, 4 h)
1 | CC(C)(SCC(=O)Nc1ccc([As](=O)(O)O)cc1)[C@@H](N)C(=O)O [(S)-Penicillamine-arsenonic acid, reference compound] | no effect on proliferation | – | – | – | – | –
2 | NC(CSCC(=O)Nc1ccc([As](O)O)cc1)C(=O)O (stereo not drawn) [CAO, 4-(N—(S-cysteinylacetyl)amino)-phenylarsinous acid] | – | greater anti-proliferative activity than GSAO | exported from cells by the multidrug resistance associated protein 1 | ~3 fold | ~8 fold | 0.20 nmol As atoms per 10^6 cells
